Consider one compound from paper PMC11476017, “A Lincomycin-Specific Antibody Was Developed Using Hapten Prediction, and an Immunoassay Was Established to Detect Lincomycin in Pork and Milk” (Foods, 2024).

In the assay the test system is T1, monoclonal antibody 1B11 (LIN/1B11).
T1 construct: whole monoclonal antibody, IgG1
Description: indirect competitive ELISA with LIN-NaIO4-OVA coating antigen. It is filed as binding.

As for `CCC[C@@H]1C[C@@H](C(=O)N[C@@H]([C@H]2O[C@H](SC)[C@H](O)[C@@H](O)[C@H]2O)[C@@H](C)O)N(C)C1` [LIN, lincomycin], the IC50 worked out at 0.57 ± 0.03 µg/kg.
